Test results from patent publication US10287251B2, “Pyrazole derivative or pharmaceutically acceptable salt thereof” (KISSEI PHARMACEUTICAL CO., LTD., priority 2015, dated 2019).

What follows are compounds tested against T1, TRPM8 (Rattus norvegicus, UniProt Q8R455) (assay: Confirmation test of inhibitory effects on icilin-induced wet-dog shakes). Conditions: female SD rats, oral dose 1 mg/kg, icilin 1 mg/kg i.p. 1 hour after dosing, shakes counted for 5 minutes.
T1 construct: from tissue; host or cells: whole animal, female SD rats (in vivo)
Format: in vivo
Text: Further, TRPM8 inhibitory activity can be evaluated by the efficacy inhibiting the wet-dog shake action which is induced by the administration of Icilin, TRPM8 agonist. Furthermore, an effect on overactive bladder (OAB) can be evaluated by an elongation of micturition interval against overactive bladder induced by acetic acid in accordance with a similar method described in J. Urol., 2001, 166, 1142.
Confirmation Test of Inhibitory Effects on Icilin-induced Wet-dog Shakes
Test compounds were dissolved in dimethylacetamide (wako), and 0.5% methylcellulose solution (wako) was added to make the solution or suspension containing 5% of dimethylacetatnide. At a dose of 0.3 to 10 mg/kg/5mL of test compounds were orally administered to female SD rats. After 1 hour, wet-dog shakes were induced by the intraperitoneal injection of icilin (1 mg/kg) which was dissolved in polyethylene glycol 400 (wako). From 5 minutes after the administration of icilin, wet-dog shakes were counted for 5 minutes. For control example, vehicle (a mixture of dimethylacetamide (wako): 0.5% methylcellulose (wako)=5:95) was administrated similarly, and the number of wet-dog shakes was counted in the same manner. A percent inhibition of wet-dog shakes by test compound was calculated from the following formula: [1-(test compound wet-dog shake count/vehicle wet-dog shake count)]×100.

T1 sequence (Q8R455 whole entry): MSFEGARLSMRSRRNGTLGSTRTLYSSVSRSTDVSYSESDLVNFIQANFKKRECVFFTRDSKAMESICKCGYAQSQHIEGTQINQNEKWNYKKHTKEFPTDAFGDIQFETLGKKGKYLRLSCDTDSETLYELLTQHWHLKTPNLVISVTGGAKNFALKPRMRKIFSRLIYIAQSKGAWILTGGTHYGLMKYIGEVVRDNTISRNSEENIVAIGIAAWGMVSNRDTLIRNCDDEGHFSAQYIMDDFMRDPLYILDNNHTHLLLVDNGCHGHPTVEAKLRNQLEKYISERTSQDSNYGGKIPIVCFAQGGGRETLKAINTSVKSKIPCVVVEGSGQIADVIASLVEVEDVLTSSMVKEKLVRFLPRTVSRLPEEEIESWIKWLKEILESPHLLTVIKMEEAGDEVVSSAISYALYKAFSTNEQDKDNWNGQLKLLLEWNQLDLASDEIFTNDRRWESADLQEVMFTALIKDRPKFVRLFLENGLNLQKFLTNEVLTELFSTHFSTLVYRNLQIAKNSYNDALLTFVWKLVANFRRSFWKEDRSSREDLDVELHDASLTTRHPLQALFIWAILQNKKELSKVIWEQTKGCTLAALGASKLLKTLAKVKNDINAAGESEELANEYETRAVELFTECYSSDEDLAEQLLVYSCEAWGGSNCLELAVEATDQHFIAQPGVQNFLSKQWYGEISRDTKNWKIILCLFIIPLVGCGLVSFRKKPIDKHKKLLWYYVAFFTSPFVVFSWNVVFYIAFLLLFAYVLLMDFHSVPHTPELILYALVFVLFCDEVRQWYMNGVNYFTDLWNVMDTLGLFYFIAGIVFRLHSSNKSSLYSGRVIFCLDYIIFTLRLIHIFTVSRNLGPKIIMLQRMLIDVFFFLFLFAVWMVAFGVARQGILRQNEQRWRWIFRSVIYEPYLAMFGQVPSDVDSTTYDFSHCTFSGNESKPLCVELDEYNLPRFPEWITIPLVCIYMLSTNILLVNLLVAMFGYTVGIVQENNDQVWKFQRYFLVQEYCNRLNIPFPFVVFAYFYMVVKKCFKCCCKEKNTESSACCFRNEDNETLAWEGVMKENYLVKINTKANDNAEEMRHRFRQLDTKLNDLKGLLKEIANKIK

Point of comparison: `CC(CO)[C@@H](Cc1ccccn1)NC(=O)c1cccc(F)c1-c1cc(-c2ccc(F)cc2)[nH]n1` (stereo partly shown) [Example 1-164], “% inhibition of Wet-Dog Shake” value 38%. Against it:
- O=C(N[C@@H](CO)Cc1ccccn1)c1ccccc1-c1n[nH]c(-c2ccc(F)cc2)c1F [Example 1-97] — higher, 50%
- O=C(N[C@@H](CO)Cc1ncccc1F)c1cccc(F)c1-c1cc(-c2ccc(F)cc2)[nH]n1 [Example 1-167] — higher, 65%
- O=C(N[C@@H](CCO)Cc1ccccn1)c1ccccc1-c1n[nH]c(-c2ccc(F)cc2)c1F [Example 1-173] — higher, 85%
- COC[C@@H](O)[C@@H](Cc1ccccn1)NC(=O)c1cccc(F)c1-c1n[nH]c(-c2ccc(F)cc2)c1F [Example 1-213] — higher, 68%

Same assay, conditions: female SD rats, oral dose 3 mg/kg, icilin 1 mg/kg i.p. 1 hour after dosing, shakes counted for 5 minutes

Point of comparison: `O=C(N[C@H](Cc1ccccn1)[C@H](O)CO)c1cccc(Cl)c1-c1cc(-c2ccc(F)cc2)[nH]n1` [Example 1-169], “% inhibition of Wet-Dog Shake” value 34%. Against it:
- O=C(N[C@@H](CO)C(O)c1ccccn1)c1cccc(F)c1-c1cc(-c2ccc(F)cc2)[nH]n1 (single isomer, unassigned) [Example 54-1] — higher, 70%
- O=C(N[C@@H](CO)C(O)c1ccccn1)c1cccc(F)c1-c1cc(-c2ccc(F)cc2)[nH]n1 (single isomer, unassigned) [Example 54-2] — higher, 48%
- O=C(N[C@@H](CO)Cc1ccccn1)c1ccccc1-c1cc(-c2ccc(F)c(F)c2)[nH]n1 [Example 1-29] — higher, 66%
- O=C(N[C@@H](CO)Cc1ccccn1)c1ccccc1-c1cc(-c2ccc(Cl)cc2)[nH]n1 [Example 1-59] — higher, 46%
- O=C(N[C@@H](CO)Cc1ccccc1)c1ccccc1-c1cc(-c2ccc(F)c(F)c2)[nH]n1 [Example 1-62] — higher, 55%
- O=C(N[C@@H](CO)Cc1ccccn1)c1cccc(OC(F)(F)F)c1-c1cc(-c2ccc(F)cc2)[nH]n1 [Example 1-64] — higher, 69%
- O=C(N[C@@H](CO)Cc1ccccc1)c1cccc(F)c1-c1cc(-c2ccccc2)[nH]n1 [Example 1-68] — higher, 41%
- O=C(N[C@@H](CO)Cc1ccccc1)c1cccc(F)c1-c1cc(-c2ccc(F)cc2)[nH]n1 [Example 1-86] — higher, 76%
- O=C(N[C@@H](CO)Cc1ccccn1)c1cccc(Cl)c1-c1cc(-c2ccc(F)cc2)[nH]n1 [Example 1-103] — higher, 45%
- C[C@H](O)[C@@H](Cc1ccccc1)NC(=O)c1cccc(F)c1-c1cc(-c2ccc(F)cc2)[nH]n1 [Example 1-104] — higher, 60%
- O=C(N[C@@H](CO)Cc1ccccn1)c1cccc(F)c1-c1n[nH]c(-c2ccc(F)cc2)c1F [Example 1-105] — higher, 90%
- COc1cccnc1C[C@H](CCO)NC(=O)c1cccc(F)c1-c1cc(-c2ccc(F)cc2)[nH]n1 [Example 1-108] — higher, 61%
- CC(O)[C@@H](Cc1ccccn1)NC(=O)c1cccc(F)c1-c1cc(-c2ccc(F)cc2)[nH]n1 (stereo partly shown) [Example 1-113] — higher, 98%
- Cc1cccnc1C[C@H](CCO)NC(=O)c1cccc(F)c1-c1cc(-c2ccc(F)cc2)[nH]n1 [Example 1-117] — higher, 46%
- CC(O)[C@@H](Cc1ccccn1)NC(=O)c1cccc(F)c1-c1cc(-c2ccc(F)cc2)[nH]n1 (stereo partly shown) [Example 1-124] — higher, 42%
- C[C@H](O)C[C@@H](Cc1ccccn1)NC(=O)c1cccc(F)c1-c1cc(-c2ccc(F)cc2)[nH]n1 [Example 1-130] — higher, 92%
- O=C(N[C@@H](CCO)Cc1ccccn1)c1cccc(F)c1-c1cc(-c2ccc(Cl)cc2)[nH]n1 [Example 1-131] — higher, 94%
- O=C(N[C@@H](CCO)Cc1ccccn1)c1cccc(OC(F)(F)F)c1-c1cc(-c2ccc(F)cc2)[nH]n1 [Example 1-134] — higher, 49%
- O=C(N[C@@H](CO)Cc1ccccn1)c1cccc(F)c1-c1cc(-c2ccc(Cl)cc2)[nH]n1 [Example 1-137] — higher, 84%
- CC(c1ccccn1)[C@H](CCO)NC(=O)c1cccc(F)c1-c1cc(-c2ccc(F)cc2)[nH]n1 (stereo partly shown) [Example 1-138] — higher, 100%
- O=C(N[C@@H](CCO)Cc1ccccn1)c1cccc(F)c1-c1n[nH]c(-c2ccc(Cl)cc2)c1F [Example 1-154] — higher, 75%
- O=C(N[C@H](Cc1ccccn1)[C@H](O)CO)c1cccc(F)c1-c1n[nH]c(-c2ccc(F)cc2)c1F [Example 1-156] — higher, 99%
- CC(CO)[C@@H](Cc1ccccn1)NC(=O)c1cccc(F)c1-c1cc(-c2ccc(Cl)cc2)[nH]n1 (stereo partly shown) [Example 1-162] — higher, 48%
- O=C(N[C@@H](CO)Cc1ncccn1)c1cccc(F)c1-c1cc(-c2ccc(F)cc2)[nH]n1 [Example 1-174] — higher, 60%
- O=C(N[C@@H](CO)Cc1nccs1)c1cccc(F)c1-c1cc(-c2ccc(F)cc2)[nH]n1 [Example 1-177] — higher, 59%
- O=C(N[C@@H](CO)Cc1cscn1)c1cccc(F)c1-c1cc(-c2ccc(F)cc2)[nH]n1 [Example 1-182] — higher, 37%
- Cn1ccnc1C[C@H](CO)NC(=O)c1cccc(F)c1-c1cc(-c2ccc(F)cc2)[nH]n1 [Example 1-183] — higher, 36%
- O=C(N[C@H](Cc1ccccn1)[C@H](O)CO)c1ccccc1-c1cc(-c2ccc(F)cc2)[nH]n1 [Example 1-185] — higher, 56%
- O=C(N[C@@H](CCO)Cc1ncccn1)c1cccc(F)c1-c1cc(-c2ccc(F)cc2)[nH]n1 [Example 1-191] — lower, 31%
- O=C(NCC(O)c1ccccn1)c1cccc(F)c1-c1cc(-c2ccc(F)cc2)[nH]n1 (stereo not shown) [Example 1-194] — higher, 60%
- COc1cccnc1C[C@H](CO)NC(=O)c1cccc(F)c1-c1cc(-c2ccc(F)cc2)[nH]n1 [Example 1-196] — higher, 63%
- O=C(N[C@@H](CO)Cc1ncccc1C(F)(F)F)c1cccc(F)c1-c1cc(-c2ccc(F)cc2)[nH]n1 [Example 1-197] — higher, 44%
- CC(c1ccccn1)[C@H](CO)NC(=O)c1cccc(F)c1-c1cc(-c2ccc(F)cc2)[nH]n1 (stereo partly shown) [Example 1-200] — higher, 91%
- O=C(N[C@@H](CO)C(O)c1ccccn1)c1ccccc1-c1n[nH]c(-c2ccc(F)cc2)c1F (stereo partly shown) [Example 1-205] — higher, 70%
- O=C(N[C@@H](CCO)C(O)c1ccccn1)c1ccccc1-c1n[nH]c(-c2ccc(F)cc2)c1F (stereo partly shown) [Example 1-206] — higher, 55%
- O=C(N[C@@H](CCO)Cc1ccccn1)c1ccccc1-c1cc(-c2ccc(F)cc2)[nH]n1 [Example 1-208] — higher, 100%
- O=C(N[C@@H](CO)C(O)c1ccccn1)c1cccc(Cl)c1-c1cc(-c2ccc(F)cc2)[nH]n1 (stereo partly shown) [Example 1-210] — higher, 47%
- C[C@](O)(CO)[C@@H](Cc1ccccn1)NC(=O)c1cccc(F)c1-c1cc(-c2ccc(F)cc2)[nH]n1 [Example 1-217] — higher, 75%
- C[C@](O)(CO)[C@@H](Cc1ccccn1)NC(=O)c1cccc(Cl)c1-c1cc(-c2ccc(F)cc2)[nH]n1 [Example 1-218] — higher, 40%
- C[C@](O)(CO)[C@@H](Cc1ccccn1)NC(=O)c1cccc(F)c1-c1cc(-c2ccc(Cl)cc2)[nH]n1 [Example 1-219] — higher, 45%
- O=C(N[C@@H](CCO)Cc1ccccn1)c1ccccc1-c1n[nH]c(-c2ccc(Cl)cc2)c1F [Example 1-223] — higher, 100%
- C[C@@](O)(CO)[C@@H](Cc1ccccn1)NC(=O)c1cccc(F)c1-c1cc(-c2ccc(F)cc2)[nH]n1 [Example 1-224] — higher, 82%
- C[C@@](O)(CO)[C@@H](Cc1ccccn1)NC(=O)c1cccc(Cl)c1-c1cc(-c2ccc(F)cc2)[nH]n1 [Example 1-225] — higher, 37%

Same assay, conditions: female SD rats, oral dose 10 mg/kg, icilin 1 mg/kg i.p. 1 hour after dosing, shakes counted for 5 minutes

Point of comparison: `O=C(N[C@@H](CO)Cc1ccccn1)c1cccc(F)c1-c1cc(-c2ccccc2)[nH]n1` [Example 1-69], “% inhibition of Wet-Dog Shake” value 93%. Against it:
- O=C(NCCc1ccccn1)c1ccccc1-c1cc(-c2ccccc2)[nH]n1 [Example 1-3] — lower, 66%
- NC(=O)[C@@H](Cc1ccccn1)NC(=O)c1ccccc1-c1cc(-c2ccccc2)[nH]n1 [Example 1-15] — lower, 54%
- O=C(N[C@@H](CO)Cc1ccccn1)c1ccccc1-c1cc(-c2ccccc2)[nH]n1 [Example 1-27] — lower, 68%
- O=C(NC(CCO)Cc1ccccc1)c1ccccc1-c1cc(-c2ccc(F)cc2)[nH]n1 (stereo not shown) [Example 1-76] — lower, 72%
- NC(=O)C[C@@H](Cc1ccccc1)NC(=O)c1ccccc1-c1cc(-c2ccc(F)cc2)[nH]n1 [Example 1-77] — lower, 59%
- O=C(N[C@@H](CO)Cc1ccccn1)c1ccccc1-c1cc(-c2ccc(Cl)c(F)c2)[nH]n1 [Example 1-85] — lower, 86%
- O=C(N[C@@H](CO)Cc1ccccn1)c1c(F)cccc1-c1cc(-c2ccc(F)cc2)[nH]n1 [Example 1-94] — higher, 100%
- NC(=O)C[C@@H](Cc1ccccc1)NC(=O)c1cccc(F)c1-c1cc(-c2ccc(F)cc2)[nH]n1 [Example 1-128] — lower, 59%
